Source: US12070458B2, “Therapeutic agent composition and method of use, for treatment of mild congnitive impairment, depression, and psychological disorders” (priority 2018, dated 2024)

Test system: patients with major depressive disorder
Test: Double-blind, randomized, placebo-controlled, active reference study in patients with major depressive disorder
Assay type: in vivo, human
Conditions: for change from baseline in MADRS total score, Mean ± SD / MADRS total score, Difference to Placebo: week 6
Description: This randomized, double-blind, fixed-dose, placebo-controlled, active reference study recruited 32 randomized patients in accordance with the principles of Good Clinical Practice [ICH (1996). Harmonized Tripartite Guideline E6: Guideline for Good Clinical Practice (http://www.fda.gov/downloads/drugs/guidancecomplianceregulatoryinformation/gui dances/ucm073122.pdf)] and the Declaration of Helsinki [WMA (1964). Ethical Principles for Medical Research Involving Human Subjects (http://www.wma.net/en/30publications/10policies/b3/). World Medical Association.] Local ethics committees approved the study design and eligible patients gave their written informed consent before participating.
Eligible patients were randomized equally (1:1:1:1) to one of the four treatment arms for a 6-week double-blind treatment period. Randomized patients were given 1-week wallet cards at each visit and were instructed to take two capsules per day, orally, at the same time every day (preferably in the morning). NA-831 was dosed at 20 mg/day or 40 mg/d for 6 week and venlafaxine at 75 mg/d over 6-week treatment period. Efficacy and tolerability were assessed at screening, baseline and after 1, 2, 3, 4, 5, and 6 week. Patients were contacted for a safety follow-up 4 week after the completion visit.
Patients with MDD presenting with a current major depressive episode according to DSM-IV-TR criteria were included in the study if they were an outpatient of either sex, aged from 20 yr to 65 yr, (mean=39.7±8.5) (with a Montgomery—Åsberg Depression Rating Scale (MADRS) (Montgomery & Åsberg, 1979) total score ≥30 at the baseline visit. [Montgomery S Åsberg M (1979). A new depression scale designed to be sensitive to change. British Journal of Psychiatry 134 382-389.https://doi.org/10.1192/bjp.134.4.382]
Patients were evaluated using the MADRS from baseline to week 6. Rater training was undertaken to increase inter-rater reliability, and was supervised by an experienced investigator. Only those investigators who had actively participated in rater training sessions prior to inclusion of patients into the study were allowed to rate patients. Patient ratings were assessed by the same investigator at each visit, whenever possible.
All safety analyses were based on the all-patients-treated set (APT), comprising all randomized patients who took at least one dose of study medication. All efficacy analyses were based on a modified intent-to-treat set (ITT)—the full-analysis set (FAS), comprising all patients in the […] who had at least one valid post-baseline MADRS total score assessment.
Four hypotheses were part of the primary efficacy analysis, which was fully adjusted for multiplicity using a hierarchical testing procedure at the 5% level of significance as long as the previous hypothesis was rejected. The order of testing was: no difference between the 20 mg dose vs. placebo at week 6, no difference between […] at week 6, no difference between 20 mg dose vs. placebo at week 1, and finally no difference between 40 mg dose vs. placebo at week 1. The statistical model was an analysis of covariance (ANCOVA) of the change from baseline in MADRS total score (FAS, LOCF) with treatment and site as fixed factors and the baseline MADRS score as a covariate. The primary efficacy analysis was repeated on observed cases (OC) data, using both an ANCOVA and a mixed model for repeated measurements (MMRM).
All adverse effects (AEs) (including any change in concurrent illnesses or new illnesses) either observed by the investigator or reported spontaneously by the patient were recorded. AEs were coded using the lowest level term according to the Medical Dictionary for Regulatory Activities, version 10.0. As a post-hoc analysis, the safety database was searched at preferred-term and verbatim-term level for possible suicide-related AEs, as described by the FDA [Laughren (2006). Memorandum on Suicidality. (http://www.fda.gov/ohrms/dockets/ac/06/briefing/2006-4272b1-01-fda.pdf)].

SMILES: O=C1NCC(=O)N2CCC[C@@H]12 [cPG, cyclic Prolyl Glycine]
- change from baseline in MADRS total score, Mean ± SD (LOCF, ANCOVA, 20 mg/day orally): −22.4 ± 1.0
- change from baseline in MADRS total score, Mean ± SD (LOCF, ANCOVA, 40 mg/d orally): −23.2 ± 1.0
- change from baseline in MADRS total score, Mean ± SD (MMRM, 20 mg/day orally): −22.3 ± 0.9
- change from baseline in MADRS total score, Mean ± SD (MMRM, 40 mg/d orally): −24.9 ± 1.1
- MADRS total score, Difference to Placebo (OC, ANCOVA, 20 mg/day orally): −5.7 ± 1.3
- change from baseline in MADRS total score, Mean ± SD (OC, ANCOVA, 20 mg/day orally): −22.3 ± 0.9
- MADRS total score, Difference to Placebo (OC, ANCOVA, 40 mg/d orally): −7.8 ± 1.3
- change from baseline in MADRS total score, Mean ± SD (OC, ANCOVA, 40 mg/d orally): −24.4 ± 1.0
- tolerability (human, in vivo): well tolerated
